Measured values from article PMC4306533, “Distinct Features of Cap Binding by eIF4E1b Proteins” (Journal of Molecular Biology, 2015).
Blank lines part the entries; values can stand above or below the compound they belong to.

Tests used:
[1] = system: lung, breast cancer and malignant mesothelioma cells; design: method as in PMID 23289910, PMID 24711125; details: with gemcitabine or pemetrexed; cited from earlier work
[2] = target: T1, heIF4E1a (Homo sapiens, UniProt P06730); design: method as in PMID 17369309; details: equilibrium association constant; buffer without glycerol; footnote b; cited from earlier work
T1 construct: made in house; host or cells: E. coli Rosetta2(DE3)

[3] = target: T2, XeIF4E1a (Xenopus laevis, UniProt P48597); assay: time-synchronized fluorescence titration of cap analogue binding; details: equilibrium association constant; for Kas + glycerol XeIF4E1a: 10% glycerol; for Kas − glycerol XeIF4E1a: buffer without glycerol
T2 construct: made in house; host or cells: E. coli Rosetta2(DE3)
Excerpt: (§1) The time-synchronized fluorescence titration method, widely used to determine the affinity constants of cap–eIF4E complexes [[20,22–26]], measures the quenching of the intrinsic fluorescence of tryptophan residues due to cap binding (Fig. S2). Knowledge of the equilibrium association constant Kas enables the calculation of the free-energy changes involved in the interaction between eIF4E and ligand, according to the standard equation ΔG° = − RTlnKas.
(§2) For human eIF4E1a and eIF4E1b and also for Xenopus eIF4E1a and its mutated forms, measurements were carried out using 0.1 μM protein in 50 mM Hepes/KOH (pH 7.2), 134.5 mM KCl, 0.5 mM EDTA and 1 mM DTT. For Xenopus eIF4E1b(ΔN27), the concentration was 0.2 μM and glycerol was added to the buffer to 10% (v/v) final concentration. […] Fluorescence of measured samples was excited at 280 nm (2.5 nm bandwidth) and detected at 337 nm or 330 nm (4 nm bandwidth), thus reducing the signal originated from the free cap analogues. Measurements were carried out on a LS-55 spectrofluorometer (Perkin Elmer Co.) using freshly prepared proteins, and the fluorescence intensities were corrected for sample dilution and the inner filter effect.
(§3) Equilibrium association constants (Kas) were determined by fitting the theoretical dependence of fluorescence intensity on the total concentration of the cap analogue to the experimental data points, according to the equation described previously (see Ref. [22] and Fig. S2c).
(§4) The final Kas was calculated as a weighted average of 2–6 independent titrations with the weights taken as the reciprocal of the numerical standard deviation squared. Numerical, nonlinear least-squares regression analysis was performed using Origin 6.0 (Microcal Software Inc.). Obtained association constants were used to determine the Gibbs free energy according to the standard equation ΔG° = − RTlnKas.

[4] = system: heIF4E1b; assay: as above; design: species or system human; details: without glycerol
Excerpt: as §1, §2, §3, §4

[5] = system: XeIF4E1a; assay: as above; design: species or system Xenopus laevis; details: without glycerol
Excerpt: as §1, §2, §3, §4

[6] = target: T3, heIF4E1b (Homo sapiens, UniProt A6NMX2); assay: as above; details: equilibrium association constant; buffer without glycerol
T3 construct: made in house; host or cells: E. coli Rosetta2(DE3)
T3 sequence (A6NMX2 1-242): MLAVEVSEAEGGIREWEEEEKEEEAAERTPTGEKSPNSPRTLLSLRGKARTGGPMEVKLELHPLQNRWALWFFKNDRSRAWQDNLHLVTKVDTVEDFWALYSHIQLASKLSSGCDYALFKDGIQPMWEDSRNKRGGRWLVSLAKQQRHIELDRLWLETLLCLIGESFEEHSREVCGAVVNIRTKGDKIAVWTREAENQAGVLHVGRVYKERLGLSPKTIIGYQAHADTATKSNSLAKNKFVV
Excerpt: as §1, §2, §3, §4

[7] = target: T4, X4E1a3 (E101S/K102R/S195A) (Xenopus laevis, UniProt P48597, E101S/K102R/S195A); assay: fluorescence titration, XeIF4E1a mutant; format: binding; details: mutant (E101S/K102R/S195A) of XeIF4E1a
T4 construct: made in house; host or cells: E. coli Rosetta2(DE3)
Excerpt: (§5) We tested the effect on cap-binding activity of these positions in the fluorescence assay with six mutated recombinant versions of Xenopus eIF4E1a (Fig. S4). The amino acids were introduced in XeIF4E1a sequentially in the order: E101S/K102R/S195A/M82S/T206L/T207S (numbering of the XeIF4E1a sequence is shifted backward by 4 amino acids relative to XeIF4E1b). […] The biggest contribution to the weaker cap binding of XeIF4E1a, in each case about 20%, resulted from changing Glu101 to Ser and Thr206 to Leu coupled with Thr207 to Ser, with the remaining mutations having only minor effects. […] Glu101 is a solvent-accessible amino acid and is proximal to Trp98 in the S3-S4 loop. […] Attenuation of the cap-binding affinity of XeIF4E1a resulting from mutating Thr206 and Thr207 is consistent with our results mentioned above showing significant influence of C-terminal loop residues on binding phosphate and the second nucleotide.
(§6) For human eIF4E1a and eIF4E1b and also for Xenopus eIF4E1a and its mutated forms, measurements were carried out using 0.1 μM protein in 50 mM Hepes/KOH (pH 7.2), 134.5 mM KCl, 0.5 mM EDTA and 1 mM DTT. For Xenopus eIF4E1b(ΔN27), the concentration was 0.2 μM and glycerol was added to the buffer to 10% (v/v) final concentration. […] The gradually increasing concentration of cap analogue quenches protein fluorescence without shifting the spectrum maximum, while at high concentrations, the fluorescence signal of free cap analogue dominates over the fluorescence from other solution components including free eIF4E and eIF4E in complex with cap (Fig. S2a). Fluorescence of measured samples was excited at 280 nm (2.5 nm bandwidth) and detected at 337 nm or 330 nm (4 nm bandwidth), thus reducing the signal originated from the free cap analogues. Measurements were carried out on a LS-55 spectrofluorometer (Perkin Elmer Co.) using freshly prepared proteins, and the fluorescence intensities were corrected for sample dilution and the inner filter effect.
(§7) Equilibrium association constants (Kas) were determined by fitting the theoretical dependence of fluorescence intensity on the total concentration of the cap analogue to the experimental data points, according to the equation described previously (see Ref. [22] and Fig. S2c). […] Along with Kas and the concentration of the active protein [P0^act], other parameters such as fL and ∆f = fPact − fPL are also gained from the fit, where fL represents the fluorescence efficiency of free cap analogue and ∆f represents the difference between the fluorescence efficiencies of the apo-protein and the complex (Fig. S2c).
as §4

[8] = target: T5, X4E1a4 (E101S/K102R/S195A/M82S) (Xenopus laevis, UniProt P48597, E101S/K102R/M82S/S195A); assay: fluorescence titration, XeIF4E1a mutant; format: binding; details: mutant (E101S/K102R/S195A/M82S) of XeIF4E1a
T5 construct: made in house; host or cells: E. coli Rosetta2(DE3)
Excerpt: as §5, §6, §7, §4

[9] = target: T6, X4E1a1 (E101S) (Xenopus laevis, UniProt P48597, E101S); assay: fluorescence titration, XeIF4E1a mutant; format: binding; details: mutant (E101S) of XeIF4E1a
T6 construct: made in house; host or cells: E. coli Rosetta2(DE3)
Excerpt: as §5, §6, §7, §4

[10] = target: T7, X4E1a6 (E101S/K102R/S195A/M82S/T206L/T207S) (Xenopus laevis, UniProt P48597, E101S/K102R/M82S/S195A/T206L/T207S); assay: fluorescence titration, XeIF4E1a mutant; format: binding
T7 construct: made in house; host or cells: E. coli Rosetta2(DE3)
Excerpt: as §5, §6, §7, §4

[11] = target: T8, X4E1a2 (E101S/K102R) (Xenopus laevis, UniProt P48597, E101S/K102R); assay: fluorescence titration, XeIF4E1a mutant; format: binding; details: mutant (E101S/K102R) of XeIF4E1a
T8 construct: made in house; host or cells: E. coli Rosetta2(DE3)
Excerpt: as §5, §6, §7, §4

[12] = target: T9, X4E1a1’ (K102R) (Xenopus laevis, UniProt P48597, K102R); assay: fluorescence titration, XeIF4E1a mutant; format: binding; details: mutant (K102R) of XeIF4E1a
T9 construct: made in house; host or cells: E. coli Rosetta2(DE3)
Excerpt: as §5, §6, §7, §4

[13] = system: XeIF4E1bΔN27; assay: time-synchronized fluorescence titration of cap analogue binding; design: species or system Xenopus laevis; details: 10% glycerol
Excerpt: as §1, §2, §3, §4

[14] = system: in vitro translation; design: method as in PMID 10387101; details: Cai et al.; read-out: IC50 (inhibitory potency); cited from earlier work
[15] = target: eIF4E1a; design: method as in PMID 19351181; details: Ghosh et al.; cited from earlier work
[16] = system: eIF4E1a; design: method as in PMID 15317978; details: cited from earlier work

T2 sequence (P48597 whole entry): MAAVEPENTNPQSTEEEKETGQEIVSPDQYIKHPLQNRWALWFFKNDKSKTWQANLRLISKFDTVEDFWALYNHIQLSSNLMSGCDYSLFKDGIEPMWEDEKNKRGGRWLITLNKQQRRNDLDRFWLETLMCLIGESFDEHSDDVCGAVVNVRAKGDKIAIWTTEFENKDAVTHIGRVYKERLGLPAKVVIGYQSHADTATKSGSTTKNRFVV
T7 sequence (P48597 whole entry M82S/E101S/K102R/S195A/T206L/T207S): as the sequence (P48597 whole entry) above, with M82S, E101S, K102R, S195A, T206L, T207S counted along it
T9 sequence (P48597 whole entry K102R): as the sequence (P48597 whole entry) above, with K102R counted along it
T6 sequence (P48597 whole entry E101S): as the sequence (P48597 whole entry) above, with E101S counted along it
T8 sequence (P48597 whole entry E101S/K102R): as the sequence (P48597 whole entry) above, with E101S, K102R counted along it
T1 sequence (P06730 whole entry): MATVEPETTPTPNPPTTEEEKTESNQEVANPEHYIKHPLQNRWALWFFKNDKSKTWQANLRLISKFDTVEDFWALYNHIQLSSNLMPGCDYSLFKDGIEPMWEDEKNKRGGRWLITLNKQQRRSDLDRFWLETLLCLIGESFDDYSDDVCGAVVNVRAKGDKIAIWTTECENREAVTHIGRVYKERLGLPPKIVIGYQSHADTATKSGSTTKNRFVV
T5 sequence (P48597 whole entry M82S/E101S/K102R/S195A): as the sequence (P48597 whole entry) above, with M82S, E101S, K102R, S195A counted along it
T4 sequence (P48597 whole entry E101S/K102R/S195A): as the sequence (P48597 whole entry) above, with E101S, K102R, S195A counted along it

SMILES: Nc1nc2c(c(=O)[nH]1)[n+](Cc1ccccc1)cn2[C@@H]1O[C@H](COP(=O)(O)NCCc2c[nH]c3ccccc23)[C@@H](O)[C@H]1O [4Ei-1]
effect on malignant phenotypes and chemosensitization [1]: suppresses malignant phenotypes and chemosensitizes cells

Kas + glycerol XeIF4E1a [3]: 5.97 ± 0.37 μM^− 1 | Kas − glycerol XeIF4E1a [3]: 11.42 ± 0.50 μM^− 1 | Ratio Kas (h4E1a) to Kas (h4E1b) [4]: 2.32 | Ratio Kas (h4E1a) to Kas (X4E1a) [5]: 1.56 | Kas − glycerol heIF4E1b [6]: 7.64 ± 0.71 μM^− 1 | Kas X4E1a3 [7]: 8.53 ± 0.36 µM⁻¹ | Kas X4E1a4 [8]: 7.68 ± 0.40 µM⁻¹ | Kas X4E1a1 [9]: 10.1 ± 1.2 µM⁻¹ | Kas + glycerol X4E1a6 ([10]; 10% glycerol, Fig. 5d): 3.68 ± 0.10 µM⁻¹ | Kas X4E1a6 ([10]; mutant (E101S/K102R/S195A/M82S/T206L/T207S) of XeIF4E1a): 6.82 ± 0.17 µM⁻¹ | Kas X4E1a2 [11]: 8.80 ± 0.16 µM⁻¹ | Kas X4E1a1’ [12]: 11.09 ± 0.21 µM⁻¹ | Ratio Kas (X4E1a) to Kas (X4E1bΔN27) [13]: 2.45 | Kas + glycerol XeIF4E1bΔN27 ([13]; equilibrium association constant): 2.43 ± 0.15 μM^− 1
SMILES: Cn1c[n+]([C@@H]2O[C@H](COP(=O)(O)OP(=O)([O-])O)[C@@H](O)[C@H]2O)c2nc(N)[nH]c(=O)c21 [m^7GDP]
Kas − glycerol heIF4E1a [2]: 17.76 ± 0.34 ^b μM^− 1 | IC50 [14]: 7.5 µM

Kas + glycerol XeIF4E1a [3]: 0.256 ± 0.018 μM^− 1 | Kas − glycerol XeIF4E1a [3]: 0.567 ± 0.012 μM^− 1 | Kas − glycerol heIF4E1b [6]: 0.628 ± 0.016 μM^− 1
SMILES: Cn1c[n+]([C@@H]2O[C@H](COP(=O)(O)O)[C@@H](O)[C@H]2O)c2nc(N)[nH]c(=O)c21 [m^7GMP]
Kd [15]: 7.5 µM | IC50 [14]: 382 µM

SMILES: Nc1nc2c(ncn2[C@@H]2O[C@H](COP(=O)(O)OP(=O)(O)OP(=O)([O-])OP(=O)(O)OC[C@H]3O[C@@H]([n+]4cn(Cc5ccccc5)c5c(=O)[nH]c(N)nc54)[C@H](O)[C@@H]3O)[C@@H](O)[C@H]2O)c(=O)[nH]1 [bn^7GppppG]
cap-binding affinity to eIF4E1a versus methylated counterpart [16]: no increase in cap-binding affinity to eIF4E1a was observed
